Experimental data from patent US10189957B2, “Formulation process method to produce spray dried products” (ISP INVESTMENTS LLC, priority 2007, dated 2019).

Legend:
[1] = Dissolution test, USP apparatus II (paddles), powders in size 1 hard gelatin capsules; format: physicochemical; details: amount equivalent to 50 mg efavirenz, capsules with additional 15% croscarmellose sodium, 37° C.
Protocol: A. The dissolution properties of both amorphous compositions were tested and compared to crystalline EFV. An amount equivalent to 50 mg efavirenz was analyzed. Powders were hand-filled into size 1 hard gelatin capsules (Shinogi Qualicaps) with an additional 15% croscarmellose sodium (Ac-Di-Sol®, FMC BioPolymers). USP apparatus II (paddles) (VK 7010®, Varian Inc.) was used, with a bath temperature of 37° C. and a paddle speed of 50 rpm for 60 minutes.
B. Each of the amorphous powders from Examples 1 and 2 achieved higher rate of release and maximum aqueous concentration than the crystalline form (FIG. 6, Table 2). The initial rate of release from the amorphous powders was more than 10-times higher than the crystalline form.

[2] = Solubility in ethyl acetate at standard laboratory conditions; format: physicochemical; details: about 25° C. and 1 atmosphere
Protocol: A dispersion was prepared containing 1 ezetimibe: 1 PVP K-12 at 1% total solids in ethyl acetate at standard laboratory conditions (about 25° C. and 1 atmosphere).

Row | SMILES | extent of release ([1]; paddle speed 50 rpm for 60 minutes) | rate of release, 0-15 min ([1]; paddle speed 50 rpm, 0-15 min) | solubility in ethyl acetate [2]
1 | O=C1Nc2ccc(Cl)cc2[C@@](C#CC2CC2)(C(F)(F)F)O1 [crystalline EFV, efavirenz] | 10% | 0.13 mg/min | 
2 | O=C1[C@H](CC[C@H](O)c2ccc(F)cc2)[C@@H](c2ccc(O)cc2)N1c1ccc(F)cc1 [ezetimibe] |  |  | soluble
